Experimental findings from patent US20100317671A1, “XANTHINE-BASED CYCLIC GMP-ENHANCING RHO-KINASE INHIBITOR INHIBITS PHYSIOLOGICAL ACTIVITIES OF LUNG EPITHELIAL CELL LINE” (KAOHSIUNG MEDICAL UNIVERSITY, priority 2008, published 2010) are described below.

Experiment [1] can be described thus: Body weight change, bleomycin-induced IPF mice. The experiment is classed as in vivo. The procedure: The six-week old mice are used in this experiment and divided into ten groups as follows. […] The six-week old male C57B1/6 mice are purchased from the National Laboratory Animal Center. […] After being […] pentobarbital in the dose of 0.52 mg/10 g, the mice is kept upright and positioned an otoscope into the larynx for looking into the trachea clearly. The bleomycin is loaded by a loading tip for intratracheal administration.

A further experiment concerns collagen. In words: Collagen amount, bleomycin-induced IPF mice. Conditions: for Fibrosis formation in lung tissue (collagen): day 28, p<0.01; for The amount of collagen: day 28 after BLM. Type of experiment: in vivo. The procedure: The amount of the collagen in the lung lavage is measured to reflect the fibrosis formation. […] (2) After the lung lavage is obtained, the chest of mice is opened and the lung lobes are cut one by one. […] The 1.5 ml eppendorffs are taken to arrange the calibration curve as follows. […] The eppendorff is then centrifuged at 12,000 rpm for 10 mins. The supernatant in the eppendorff is poured out slowly, 1 ml basic compound is added for dissolving the precipitation. After being violently shaken for 5 mins, the reaction is incubated for 3 hrs to stabilize the color. […] The amount of collagen is estimated through the 540 nm absorption measured by the ELISA reader.

In experiment [2] the test system is MMP-9. In words: OVA-induced MMP-9 expression in lung tissue, asthma mice. Type of experiment: in vivo, BALB/c mice. As to conditions: nebulization, 28-day experiment; western blotting and zymography. Background: Immunoblotting shows a protein as a band on a membrane.
Experimental: The male BALB/c mice (20-23 g) are injected (i.p.) with OVA (5 mM, 30 mins), sensitized with OVA on day 1 and day 8 via i.p injection and activated by 2 mg aluminum hydroxide to which 2 μg OVA is absorbed. […] The asthmatic animals are divided into 5 groups, wherein the control group is only administered with saline spray and the remaining experimental groups are firstly administered with 1% OVA spray and then administered with the sprays of the related complex salts respectively as shown in Table 4. The inhibition of the expression of OVA-induced MMP-9 in lung tissue of BALB/c mice is measured.
Experiment [3] deals with eNOS. The experiment is described as follows: eNOS expression by western blotting, bleomycin mice. The experiment is classed as in vivo. As to conditions: lung fibrotic stage. The method, then: At day 28, it is observed that expression of eNOS is decreased, the expressions of TGF-β, Smad 3 and HMGB1 are increased and there is significant collagen accumulation in the tissue sections.
The eNOS (FIG. 15), p-eNOS (FIG. 16) and iNOS (FIG. 17) protein expressions in the lung tissue are analyzed by western blotting. […] The KMUPs administration effectively increases the eNOS expression.
(§1) (1) The mice lung is immersed in the tissue lysis buffer and homogenized by an ultrasound sonicator on ice.
(§2) (2) The lysate is centrifuged at 13,000 g under 4° C. for 30 mins. The supernatant is collected and the protein concentration measurement adopts the“Bio-Rad DC protein assay”. After diluting the protein as specific concentrations, the sample buffer being one fourth of the sample volume is added thereinto for heating at 100° C. for 5 mins, and the sample is loaded into each wells of SDS-PAGE gel in turn. The running buffer is added into the electrophoresis tank for electrophoresis at 100 V, the voltage is adjusted as 200 V when the protein runs to the lower gel, and the electrophoresis is stopped when the SDS-PAGE dye enters the SDS-PAGE.
(3) The PVDF membrane is rinsed ith transfer buffer for use, and the protein on the SDS-PAGE is transferred to the PVDF membrane. […]

Experiment [4] deals with MMP-9. The experiment is described as follows: Immunostaining of lung sections, OVA mice. As to conditions: OVA-sensitized and -challenged mice. Type of experiment: in vivo.
A further experiment has as its system MMP-2. The experiment is described as follows: Western blotting of lung tissue, bleomycin mice. Type of experiment: in vivo. As to conditions: increased by bleomycin; p<0.01. The procedure: (§3) The lung tissue is analyzed by western blotting, and the MMP-2 and MMP-9 protein expressions are shown in both of the FIGS. 9 and 10. In the lung tissue, the MMP-2 expression is more significant than MMP-9. KMUP-1 and KMUP-5 may mitigate the expressions of MMP-2 and MMP-9 increased by administrating the bleomycin (p<0.01).
as §1, §2
(§4) (3) The PVDF membrane is rinsed ith transfer buffer for use, and the protein on the SDS-PAGE is transferred to the PVDF membrane. The SDS-PAGE layer covering on the PVDF membrane is placed in a protein transfer tank immersed with the transfer buffer with the current set at 100V. After 80 mins, the transfer is completed and then the PVDF membrane is taken out.
(§5) (4) after cutting the band having an appropriate molecular weight on the PVDF membrane, an appropriate amount of the blocking buffer is added to for blocking under room temperature to remove the non-specific binding. Then, evenly covering the diluted primary antibody on the PVDF membrane to react under room temperature for 2 hrs, and the excessive antibodies are removed by T-TBS. Further, evenly covering the diluted secondary antibody to react under room temperature for 1 hr and finally washing the excessive antibodies with T-TBS. The enhanced chemiluminescence (ECL) agent is added for reacting for 1-90 secs. After exposing to a x-ray film, the reaction is completed.

Experiment [5] has as its system MMP-9. In words: Western blotting of lung tissue, bleomycin mice. Type of experiment: in vivo. As to conditions: increased by bleomycin; p<0.01. The procedure: as §3, §1, §2, §4, §5
Experiment [6] concerns eNOS. The experiment is described as follows: Short-term nebulization without OVA sensitization, lung tissue. Type of experiment: in vivo, mice. As to conditions: 1.0~2.5 mM, 30 mins nebulization, no OVA. The method, then: (§6) Short-term KMUP-1 (5 mM, 30 min) nebulization and pretreatment with L-NAME (12 mM, […]) are accomplished using a previously described method. Aerosols were generated by ultrasonic nebulizer from day 21 to 27. Mice were sacrificed on day 28. Three different experiments were performed on cohorts of 7-14 mice per experimental condition.
(§7) Please refer to FIGS. 22(B) and 23(B), the changes of eNOS and MMP-9 expression by KMUP-1 (2.5 mM, 30 mins) are reversed by L-NAME-pretreatment (12 mM, 30 mins).

Experiment [7] has as its system MMP-9. The description is as above. Type of experiment: in vivo, mice. As to conditions: 1.0~2.5 mM, 30 mins nebulization, no OVA. The procedure:
as §6, §7

A further experiment deals with VCAM-1. In words: Western blotting of lung tissue, OVA-sensitized and -challenged mice. Type of experiment: in vivo. The source says:
(§8) Inhaled KMUP-1 can be absorbed into airway and blood flow to increase eNOS and down-regulate Rho-kinase expression by a cGMP-dependent pathway, protecting OVA-sensitized and challenged ICAM-1/VCAM-1 expression-associated cellular adhesion and migration activity of neutrophils.

The subject of a further experiment is ICAM-1. The experiment is described as above. Type of experiment: in vivo.
Text: as §8

Experiment [8] concerns eNOS. In words: Immunostaining of lung sections, OVA mice. Type of experiment: in vivo. The source says: OVA decreases vascular eNOS-immunostaining in lung sections, but KMUP-1 prevents this decrease quantitatively.
The nature of experiment [9]: Monocrotaline (MCT)-induced pulmonary arterial hypertension, PABP. The experiment is classed as in vivo, male Wistar rats. As to conditions: MCT-treated rats. The procedure:
The rats administered MCT (60 mg/kg) are caused pulmonary artery hypertension on day 21 after the intraperitoneal injection. The KMUP-1HCl salt (2.5 mg/kg), Simvastatin (2.5 mg/kg), KMUP-1-nicotinic acid complex (2.5 mg/kg), KMUP-1-citric acid complex (2.5 mg/kg), KMUP-1-Simvastatinic Acid complex (2.5 mg/kg) and KMUP-1-γ-polyglutamic acid complex (2.5 mg/kg) orally administered, or the KMUP-1-PGI2 complex (0.1 mM) inhaled every day may inhibit the pulmonary arterial blood pressure (PABP) in MCT-treated male Wistar rats.

[10] abbreviates: Day 7, dose 2.5 mg/kg (Combination: 2.5 mg/kg each drug).
Setting [11] is: Day 14, dose 2.5 mg/kg (Combination: 2.5 mg/kg each drug).
Setting [12] is: Day 28, dose 2.5 mg/kg (Combination: 2.5 mg/kg each drug).
The mark [13] stands for this setting: Day −3, dose 2.5 mg/kg (Combination: 2.5 mg/kg each drug).
Setting [14] is: dose 2.5 mg/kg (Combination: 2.5 mg/kg each drug).

In the case of `Cn1c(=O)c2c(ncn2CCN2CCN(c3ccccc3Cl)CC2)n(C)c1=O` [KMUP-1, 7-[2-[4-(2-chlorobenzene)piperazinyl]ethyl]-1,3-dimethylxanthine], the Body weight in [1] (Day 7, dose 1 mg/kg) was 19.80 ± 3.13 g; in experiment [1] (setting [10]), 17.84 ± 1.72 g; in experiment [1] (Day 7, dose 5 mg/kg), 18.33 ± 1.3 g; in [1] (Day 14, dose 1 mg/kg), 20.48 ± 5.68 g; in experiment [1] (setting [11]), 19.11 ± 3.4 g; in [1] (Day 14, dose 5 mg/kg), 19.83 ± 2.3 g. Also, the Body weight in experiment [1] (Day 28, dose 1 mg/kg) is listed as 21.90 ± 5.27 g; in [1] (setting [12]), 20.43 ± 2.8 g; in experiment [1] (Day 28, dose 5 mg/kg) it was 21.13 ± 2.5 g; in experiment [1] (Day −3, dose 1 mg/kg), 24.12 ± 1.96 g; in [1] (setting [13]) it was 23.06 ± 1.36 g; in [1] (Day −3, dose 5 mg/kg) it was 23.13 ± 1.42 g. For the same compound, the “Fibrosis formation in lung tissue (collagen)” value in the experiment with collagen is “reduce”. In addition, the “The amount of collagen” value in the experiment on collagen (dose 1 mg/kg) is given as 165.16 ± 0.11 μg/lung; in the experiment with collagen (setting [14]) it was 132.25 ± 5.95 μg/lung; in the experiment with collagen (dose 5 mg/kg) it was 108.32 ± 6.05 μg/lung. In addition, the “MMP-9 expression increased by OVA sensitization” value in the experiment with MMP-9 [2] is “significantly reduced”. Moreover, the “Expression of eNOS” value in the experiment on eNOS [3] is reported as “increase”. The MMP-9 positive cells result in the experiment with MMP-9 [4] was “hardly detected”. In addition, in the experiment on MMP-2, the “MMP-2 protein expression in lung tissue (western blotting)” value is reported as “mitigate”. In addition, in the experiment on MMP-9 [5], the “MMP-9 protein expression in lung tissue (western blotting)” value is listed as “mitigate”. Besides, the “eNOS expression in lung tissues” value with eNOS [6] was “dose-dependently increased”. Moreover, the “MMP-9 expression in lung tissues” value in the experiment on MMP-9 [7] is “decreased”. Also, the VCAM-1 expression entry with VCAM-1 is “suppressing”. The ICAM-1 expression entry with ICAM-1 was “suppressing”. For the same compound, the “Vascular eNOS-immunostaining decreased by OVA” value with eNOS [8] is “prevents”.

Turning to `CCC(C)(C)C(=O)O[C@H]1C[C@@H](C)C=C2C=C[C@H](C)[C@H](CC[C@@H](O)C[C@@H](O)CC(=O)O)[C@H]21.Cn1c(=O)c2c(ncn2CCN2CCN(c3ccccc3Cl)CC2)n(C)c1=O` [KMUP-5], the Body weight in experiment [1] (setting [10]) came out at 22.25 ± 2.36 g; in experiment [1] (setting [11]) it was 23.15 ± 2.51 g; in experiment [1] (setting [12]), 23.03 ± 2.74 g; in experiment [1] (setting [13]), 23.87 ± 2.04 g. Also, in [1] (bleomycin mice), the “Marasmus (body weight loss)” value is on record as “less significant”. Besides, the “Fibrosis formation in lung tissue (collagen)” value in the experiment with collagen is on record as “reduce”. The “The amount of collagen” value in the experiment with collagen (setting [14]) came to 79.40 ± 0.02 μg/lung. Also, in experiment [9] (2.5 mg/kg orally every day), the “Pulmonary arterial blood pressure (PABP), in words” value is on record as “inhibit”. Besides, the PABP in experiment [9] (2.5 mg/kg/day p.o.) is recorded as 12 ± 1.3 mmHg. Also, the “Expression of eNOS” value in the experiment on eNOS [3] is on record as “increase”. The “MMP-2 protein expression in lung tissue (western blotting)” value in the experiment with MMP-2 is listed as “mitigate”. Further, the “MMP-9 protein expression in lung tissue (western blotting)” value in the experiment with MMP-9 [5] is recorded as “mitigate”.
